Results: US12612384B2, “Heterocyclic CYP4A inhibitor compounds and compositions thereof” (MBD CO., LTD., priority 2021, dated 2026)

target: T1, CYP4A (Homo sapiens, UniProt Q02928); assay: CYP4A enzyme assay (luminescence, Luciferin-ME); format: biochemical; conditions: Compound concentration 5 μM; 50%-70%; read-out: % Inhibition 50%-70%
T1 construct: purchased; host or cells: bacterial membranes ('bactosome')
T1 sequence (Q02928 5-519): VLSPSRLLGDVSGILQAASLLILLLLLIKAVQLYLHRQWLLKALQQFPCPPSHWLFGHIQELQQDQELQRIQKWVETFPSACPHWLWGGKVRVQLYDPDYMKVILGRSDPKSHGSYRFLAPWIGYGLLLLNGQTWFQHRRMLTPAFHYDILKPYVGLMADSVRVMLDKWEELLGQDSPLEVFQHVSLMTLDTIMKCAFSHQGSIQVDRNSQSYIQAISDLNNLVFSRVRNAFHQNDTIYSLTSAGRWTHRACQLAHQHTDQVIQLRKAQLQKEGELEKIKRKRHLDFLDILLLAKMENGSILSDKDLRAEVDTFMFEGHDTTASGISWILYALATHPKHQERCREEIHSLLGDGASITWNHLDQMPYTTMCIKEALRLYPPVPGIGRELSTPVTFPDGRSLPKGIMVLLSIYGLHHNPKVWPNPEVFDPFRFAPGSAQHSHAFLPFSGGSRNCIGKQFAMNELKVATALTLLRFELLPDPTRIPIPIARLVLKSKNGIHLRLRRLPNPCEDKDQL
Experimental: The CYP4A inhibitory activity of the above compounds of the examples was measured. The reagents used in the experiment were commercially available, and were prepared and used when necessary. The device used for measuring activity was SpectraMax of MOLECULAR DEVICES.
CYP4A bactosome and the compounds to be evaluated (5 μM) were each diluted in assay buffer (100 mM KPO4, 0.1% BSA, 1 mM DTT) and mixed in a 384 well plate (white opaque polystyrene nontreated flat-bottom well), and reaction was carried out at room temperature for 15 minutes. To induce CYP4A reaction, 5 mM Luciferin-ME, NADPH Regeneration system (10× sol. A, 20× sol. B in assay buffer, Cat. Number: V865B, Promega) were sequentially added and mixed, and the reaction was carried out at room temperature for 30 minutes. Then, Luciferin Detection reagent was added thereto and reacted at room temperature for 15 minutes to stop the CYP4A reaction and induce a luminescence reaction. Finally, after measuring the luminescence value using a microplate reader, the inhibition of CYP4A activity by the compounds was evaluated by comparing the luminescence value from each well.

| inhibition at 5 µM [%] | SMILES |
| --- | --- |
| 50 to 70 | O=C(C1CCCN(C(=O)C2CCCCC2)C1)N1CCN(c2ccnc3cc(Cl)ccc23)CC1 (stereo not shown) [Example 86, (4-(7-chloroquinolin-4-yl)piperazin-1-yl)(1-(cyclohexylcarbonyl)piperidin-3-yl)methanone] |
| 50 to 70 | O=C(C1CCCN(S(=O)(=O)C2CC2)C1)N1CCN(c2ccnc3cc(F)ccc23)CC1 (stereo not shown) [Example 119, (1-(cyclopropylsulfonyl)piperidin-3-yl)(4-(7-fluoroquinolin-4-yl)piperazin-1-yl)methanone] |
| 50 to 70 | CC(=O)Nc1ccc(C(=O)N2CCCC(C(=O)N3CCN(c4cc(C)nc5ccccc45)CC3)C2)cc1 (stereo not shown) [Example 100, N-(4-(3-(1-(2-methylquinolin-4-yl)piperazine-4-carbonyl)piperidine-1-carbonyl)phenyl)acetamide] |
| 50 to 70 | O=C(c1ccncc1)N1CCCC(C(=O)N2CCN(c3cc(C(F)(F)F)nc4ccccc34)CC2)C1 (stereo not shown) [Example 98, (1-isonicotinoylpiperidin-3-yl)(4-(2-(trifluoromethyl)quinolin-4-yl)piperazin-1-yl)methanone] |
| 50 to 70 | O=C(C1CN(S(=O)(=O)c2ccc(Br)cc2)C1)N1CCN(c2ccnc3cc(F)ccc23)CC1 [Example 68, (1-((4-bromophenyl)sulfonyl)azetidin-3-yl)(4-(7-fluoroquinolin-4-yl)piperazin-1-yl)methanone] |
| 50 to 70 | O=C(C1CCCN(S(=O)(=O)CCCO)C1)N1CCN(c2ccnc3ccccc23)CC1 (stereo not shown) [Example 133, (1-((3-hydroxypropyl)sulfonyl)piperidin-3-yl)(4-(quinolin-4-yl)piperazin-1-yl)methanone] |
| 50 to 70 | O=C(C1CCCN(S(=O)(=O)c2ccco2)C1)N1CCN(c2ccnc3cc(Cl)ccc23)CC1 (stereo not shown) [Example 123, (4-(7-chloroquinolin-4-yl)piperazin-1-yl)(1-(furan-2-ylsulfonyl)piperidin-3-yl)methanone] |

same assay, conditions: Compound concentration 5 μM; 70%-90%; read-out: % Inhibition 70%-90%

| inhibition at 5 µM [%] | SMILES |
| --- | --- |
| 70 to 90 | O=C(C1CCN(S(=O)(=O)c2ncn[nH]2)CC1)N1CCN(c2ccnc3cc(F)ccc23)CC1 [Example 135, (1-((1H-1,2,4-triazol-5-yl)sulfonyl)piperidin-4-yl)(4-(7-fluoroquinolin-4-yl)piperazin-1-yl)methanone] |
| 70 to 90 | NCCn1cnc(S(=O)(=O)N2CC[C@H](C(=O)N3CCN(c4ccnc5cc(F)ccc45)CC3)C2)n1 [Example 144, (S)-(1-((1-(2-aminoethyl)-1H-1,2,4-triazol-3-yl)sulfonyl)pyrrolidin-3-yl)(4-(7-fluoroquinolin-4-yl)piperazin-1-yl)methanone] |
| 70 to 90 | COC(=O)c1sccc1S(=O)(=O)N1CCC(C(=O)N2CCN(c3ccnc4ccccc34)CC2)C1 (stereo not shown) [Example 50, methyl 3-((3-(4-(quinolin-4-yl)piperazine-1-carbonyl)pyrrolidin-1-yl)sulfonyl)thiophene-2-carboxylate] |
| 70 to 90 | CC(=O)Nc1ccc(S(=O)(=O)N2CCCC(C(=O)N3CCN(c4ncnc5ccccc45)CC3)C2)cc1 (stereo not shown) [Example 74, N-(4-((3-(4-(quinazolin-4-yl)piperazine-1-carbonyl)piperidin-1-yl)sulfonyl)phenyl)acetamide] |

same assay, conditions: Compound concentration 5 μM; Greater than 90%; read-out: % Inhibition Greater than 90%

| inhibition at 5 µM [%] | SMILES |
| --- | --- |
| > 90 | O=C([C@@H]1CCN(S(=O)(=O)c2ncc[nH]2)C1)N1CCN(c2ccnc3cc(F)ccc23)CC1 [Example 147, (R)-(1-((1H-imidazol-2-yl)sulfonyl)pyrrolidin-3-yl)(4-(7-fluoroquinolin-4-yl)piperazin-1-yl)methanone] |
| > 90 | O=C(C1CCN(S(=O)(=O)c2cccc(F)n2)C1)N1CCN(c2ccnc3ccccc23)CC1 (stereo not shown) [Example 52, (1-((6-fluoropyridin-2-yl)sulfonyl)pyrrolidin-3-yl)(4-(quinolin-4-yl)piperazin-1-yl)methanone] |
| > 90 | O=C(c1ncn[nH]1)N1CC[C@H](C(=O)N2CCN(c3ccnc4cc(F)ccc34)CC2)C1 [Example 161, (S)-(1-(4H-1,2,4-triazole-3-carbonyl)pyrrolidin-3-yl)(4-(7-fluoroquinolin-4-yl)piperazin-1-yl)methanone] |
| > 90 | O=C(C1CN(S(=O)(=O)c2ncn[nH]2)C1)N1CCN(c2ccnc3cc(F)ccc23)CC1 [Example 137, (1-((1H-1,2,4-triazol-5-yl)sulfonyl)azetidin-3-yl)(4-(7-fluoroquinolin-4-yl)piperazin-1-yl)methanone] |
| > 90 | CC(=O)Nc1cccc(S(=O)(=O)N2CC(C(=O)N3CCN(c4ccnc5cc(F)ccc45)CC3)C2)c1 [Example 73, N-(3-((3-(4-(7-fluoroquinolin-4-yl)piperazine-1-carbonyl)azetidin-1-yl)sulfonyl)phenyl)acetamide] |
| > 90 | CC(=O)Nc1ccc(S(=O)(=O)N2CC(C(=O)N3CCN(c4ccnc5ccccc45)CC3)C2)cc1 [Example 70, N-(4-((3-(4-(quinolin-4-yl)piperazine-1-carbonyl)azetidin-1-yl)sulfonyl)phenyl)acetamide] |
| > 90 | O=C([C@H]1CCN(S(=O)(=O)c2ccc([N+](=O)[O-])cc2)C1)N1CCN(c2ccnc3cc(F)ccc23)CC1 [Example 158, (S)-(4-(7-fluoroquinolin-4-yl)piperazin-1-yl)(1-((4-nitrophenyl)sulfonyl)pyrrolidin-3-yl)methanone] |
| > 90 | CC(=O)Nc1ccc(S(=O)(=O)N2CCC(C(=O)N3CCN(c4ccnc5ccccc45)CC3)C2)cc1 (stereo not shown) [Example 21, N-(4-((3-(4-(quinolin-4-yl)piperazine-1-carbonyl)pyrrolidin-1-yl)sulfonyl)phenyl)acetamide] |
| > 90 | O=C(C1CN(S(=O)(=O)c2ccc(-c3ccncc3)cc2)C1)N1CCN(c2ccnc3cc(F)ccc23)CC1 [Example 69, (4-(7-fluoroquinolin-4-yl)piperazin-1-yl)(1-((4-(pyridin-4-yl)phenyl)sulfonyl)azetidin-3-yl)methanone] |
| > 90 | O=C([C@H]1CCN(S(=O)(=O)c2ncn[nH]2)C1)N1CCN(c2ccnc3cc(F)c(F)cc23)CC1 [Example 168, (S)-(1-((1H-1,2,4-triazol-5-yl)sulfonyl)pyrrolidin-3-yl)(4-(6,7-difluoroquinolin-4-yl)piperazin-1-yl)methanone] |
| > 90 | O=C(C1CN(S(=O)(=O)c2ccc([N+](=O)[O-])cc2)C1)N1CCN(c2ccnc3cc(F)ccc23)CC1 [Example 67, (4-(7-fluoroquinolin-4-yl)piperazin-1-yl)(1-((4-nitrophenyl)sulfonyl)azetidin-3-yl)methanone] |
| > 90 | CC(=O)Cn1cnc(S(=O)(=O)N2CC[C@H](C(=O)N3CCN(c4ccnc5cc(F)ccc45)CC3)C2)n1 [Example 142, (S)-1-(3-((3-(4-(7-fluoroquinolin-4-yl)piperazine-1-carbonyl)pyrrolidin-1-yl)sulfonyl)-1H-1,2,4-triazol-1-yl)propan-2-one] |
| > 90 | Cc1n[nH]c(C)c1S(=O)(=O)N1CCC(C(=O)N2CCN(c3ccnc4cc(F)ccc34)CC2)C1 (stereo not shown) [Example 11, (1-((3,5-dimethyl-1H-pyrazol-4-yl)sulfonyl)pyrrolidin-3-yl)(4-(7-fluoroquinolin-4-yl)piperazin-1-yl)methanone] |
| > 90 | CC(=O)Nc1ccc(S(=O)(=O)N2CC[C@@H](C(=O)N3CCN(c4ccnc5cc(F)ccc45)CC3)C2)cc1 [Example 2, (R)—N-(4-((3-(4-(7-fluoroquinolin-4-yl)piperazine-1-carbonyl)pyrrolidin-1-yl)sulfonyl)phenyl)acetamide] |
| > 90 | O=C([C@H]1CCN(S(=O)(=O)c2ncn[nH]2)C1)N1CCN(c2ccnc3cc(F)ccc23)CC1 [Example 19, (S)-(1-((1H-1,2,4-triazol-5-yl)sulfonyl)pyrrolidin-3-yl)(4-(7-fluoroquinolin-4-yl)piperazin-1-yl)methanone] |
| > 90 | O=C([C@H]1CCN(S(=O)(=O)c2ncn[nH]2)C1)N1CCN(c2ccnc3cc(O)ccc23)CC1 [Example 164, (S)-(1-((1H-1,2,4-triazol-5-yl)sulfonyl)pyrrolidin-3-yl)(4-(7-hydroxyquinolin-4-yl)piperazin-1-yl)methanone] |
| > 90 | O=C(C1CN(S(=O)(=O)c2cccc([N+](=O)[O-])c2)C1)N1CCN(c2ccnc3cc(F)ccc23)CC1 [Example 71, (4-(7-fluoroquinolin-4-yl)piperazin-1-yl)(1-((3-nitrophenyl)sulfonyl)azetidin-3-yl)methanone] |
